Literature values as cited in patent US20240000880A1, “A PHARMACEUTICAL COMPOSITION FOR PREVENTING AND TREATING LUNG INJURY, A PREPARATION METHOD THEREFOR AND A USE THEREOF” (priority 2020, published 2024).

Tested on: rats with chronic obstructive pulmonary disease
Conditions: rats with COPD; previous studies

Oc1ccc(C=Cc2cc(O)cc(O)c2)cc1 [resveratrol]
antioxidant efficacy on chronic obstructive pulmonary disease: has antioxidant efficacy | lung function: can improve lung function to some extent
